Measured values as given in patent US20070232595A1, “Method for accelerating cutaneous barrier recovery” (Shiseido Company, Ltd., priority 2006, published 2007).

Legend:
hairless mice [1] = experiment: Skin barrier recovery (TEWL) after tape stripping with topical application; type: in vivo, mouse
Method: Permeability barrier function was evaluated by measurement of transepidermal water loss (TEWL) with an electric water analyzer, as described previously(Denda et al, 1998). For barrier recovery experiments, the flank skin on both sides was subjected to repeated tape stripping until the TEWL reached 7-10 mg per cm^2 per h, as described previously(Denda et al, 1998). As for nNOS-deficient mice and wild-type, the TEWL of the ears was measured over the same sites at 1, 3 and 6 hours after tape stripping. This is because the hair shaving may induce barrier disruption. Therefore, the ears that are hairless parts were selected for TEWL measurements. […] […] The areas were covered with plastic membranes for 15 min and then the membranes were removed. Two points on one flank were measured and 4-8 mice were used to evaluate the effect of each treatment. We always disrupted the barrier between 7:00 AM and 8:00 AM and carried out the measurements of the barrier repair thereafter to avoid the influence of circadian rhythm on the repair rate(Denda and Tsuchiya, 2000). TEWL was measured over the same sites at 1, 3 and 6 hours after barrier disruption. The barrier recovery results are expressed as percent recovery, because of variations from day to day in the extent of barrier disruption. In each animal, the percentage recovery was calculated according to the following formula:

skin of hairless mice = experiment: NO release from skin organ culture after tape stripping; set-up: species or system mouse; settings: pre-incubation with inhibitor 100 μM; skin organ culture in PBS, 30 min at 37° C.
From the text: Four male hairless mice (7-10 wk old) were killed by cervical dislocation under anesthesia and skin samples were taken immediately from both flanks. Subcutaneous fat was removed with a scalpel and the skin samples that contained epidermis and dermis, were cut into squares (1.5×1.5 cm^2). […] of skin from the two flanks of each animal were placed, epidermis side upwards, in separate 35-mm culture dishes kept in an ice/water bath, and one of them was tape-stripped four times. The other piece of skin was not treated. One milliliter of phosphate-buffered saline (PBS) was added to both dishes, which were incubated for 30 min at 37° C. After the incubation, 50 μL aliquots of the PBS were removed. NO released into the PBS was quantified using a total nitric oxide assay kit (Immuno-Biological Laboratories Co., Ltd, Gunma, Japan), according to the manufacturer's instruction.

hairless mice [2] = experiment: Epidermal hyperplasia induced by barrier disruption (acetone) under low humidity; type: in vivo, mouse; settings: for epidermal proliferation (number of BrdU-positive cells, DNA synthesis) / epidermal thickness: topical application after acetone treatment under low humidity, compared with acetone treated skin; for epidermal hyperplasia induced by acetone treatment under low environmental humidity: topical application, 1 µM, 48 hours in dry condition
Method: Hairless mice were kept separately in 7.2-liter cages in which the relative humidity was maintained at less than 10% with dry air as described previously(Denda et al, 1998). The temperature was the same in all cases (22-25° C.), and fresh air was circulated 100 times per hour. Animals were kept out of the direct stream of air. During the experiments, the animal's behavior was not restricted. The level of NH3 was always below 1 ppm. Animals were first kept in a dry condition for 48 hours and then the skin on both flanks was treated with acetone-soaked cotton balls, as described previously(Denda et al, 1998). The procedure was terminated when TEWL reached 2.5-3.5 mg per cm^2 per h. Immediately after the barrier disruption, 100 μl of nNOS inhibitor and ODQ aqueous solution (1 μM) was applied on one side of the treated area. Water was applied on the other side. Then the animals were again kept in the dry condition for 48 hours. After the experiments, animals were euthanized with diethylether inhalation and skin samples were taken from the treated areas. One hour before euthanization, 20 μl per g body weight of a 10 mM solution of bromodeoxyuridine (BrdU) was injected intraperitoneally. Untreated control mice were also treated with BrdU at the same time. After fixation with 4% paraformaldehyde, full thickness skin samples were embedded in paraffin, sectioned (4 μm), and processed for hematoxylin and eosin staining. On each section, five areas were selected at random; the thickness of the epidermis was measured with an optical micrometer, and the mean value was calculated. For the assessment of DNA synthesis, the sections were immunostained with anti-BrdU antibodies. On each section, five areas were selected at random from one section; the number of immunostained cells per 1 mm of epidermis was counted and the epidermal thickness was measured with an optical micrometer. The mean value was calculated. Measurements were carried out in an observer-blinded fashion. NO evaluation in hairless mouse epidermis

[3] = tested on: Normal human epithelial keratinocytes (NHEK); experiment: Ca2+ imaging (fura-2) in single cultured keratinocytes; type: cell-based
Method: Normal human epithelial keratinocytes (NHEK) were purchased from Kurabo (Osaka, Japan). NHEK were cultured in serum-free keratinocyte growth medium, consisting of Humedia-KB2 (Kurabo, Osaka, Japan) supplemented with bovine pituitary extract (0.4% vol/vol), human recombinant epidermal growth (0.1 μg per mL), insulin (10 μg per mL), and hydrocortisol (0.5 μg per mL). The medium was replaced every 2-3 d. For the electrophysiological experiments, NHEK (passage 1-3 cells) were seeded onto collagen-coated glass coverslips and used within 4 d. Ca^2+ imaging in single keratinocytes
NHEK were grown to approximately 80-100% confluency on collagen-coated cover glass chambers (Nalge Nunc, Naperville, Ill.). Changes in [Ca^2+] in single cells were measured by the fura-2 method as described by Grynkiewicz et al. (1985) with minor modifications(Koizumi et al, 1998). In brief, the culture medium was replaced with a balanced salt solution (BSS) of the following composition (mM): NaCl 150, KCl 5, CaCl21.8, MgCl2 1.2, HEPES 25, NaH2PO4 1.2 and D-glucose 10 (pH 7.4) or calcium-free BSS which had the same composition as the above BSS with 1 mM EGTA and no added CaCl2. Cells were loaded with 5 μM fura-2 acetoxymethylester (fura-2AM, Molecular Probes, Eugene, Oreg.) at room temperature (21-23° C.) in BSS for 45 min, washed with BSS, and incubated for a further 30 min to allow de-esterification of the loaded dye. The cover slip was mounted on an inverted epifluorescence microscope (IX70, TS Olympus, Tokyo, Japan), equipped with a 75 W xenon lamp and band-pass filters of 340 and 380 nm. The image data, recorded by a high-sensivity CCD (charge-coupled-device) camera (ORCA-ER, Hamamatsu Photonics, Hamamatsu, Japan) were evaluated with a Ca^2+ analyzing system (AQUACOSMOS/RATIO, Hamamatsu Photonics). SNAP (300 μM), ODQ (10 μM) and nifedipine (50 μM) were dissolved in the BSS and the cells were exposed to the solution by perfusion. We observed four lots of pooled cells for each treatment. […] Data were represented as the ratio of fluorescence intensities at 340 and 380 nm.

[4] = topical application of 1 μM aqueous solution, 1, 3 and 6 hours after tape stripping, vs water control

**Q.** For `COC(=O)[C@@H](N)CCCNC(=N)N[N+](=O)[O-]` [L-NAMA, L-N(G)-nitro-L-arginine methyl ester], which “barrier recovery after tape stripping (percent recovery of TEWL)” value (hairless mice [1]; [4]) is on record?
**A.** accelerated the barrier repair

**Q.** With `CCCNC(=N)NCCC[C@H](N)C(=O)O` [nNOS inhibitor, N^ω-propyl-L-arginine] as the compound, how does the “barrier recovery after tape stripping (percent recovery of TEWL)” value (hairless mice [1]; [4]) read?
**A.** accelerated the barrier repair

**Q.** And the “increase of NO level (release) after tape stripping” value (skin of hairless mice)?
**A.** blocked

**Q.** What about the “epidermal proliferation (number of BrdU-positive cells, DNA synthesis)” value (hairless mice [2]) of the same compound?
**A.** Significant reductions

**Q.** What about the epidermal thickness (hairless mice [2]) of the same compound?
**A.** Significant reductions

**Q.** And the “epidermal hyperplasia induced by acetone treatment under low environmental humidity” value (hairless mice [2])?
**A.** prevented the epidermal hyperplasia

**Q.** What does the source list for `CC(=O)NC(C(=O)O)C(C)(C)SN=O` (racemic) [SNAP, S-nitroso-N-acetyl-D,L-penicillamine]?
**A.** barrier recovery after tape stripping (percent recovery of TEWL) (hairless mice [1]; topical application of one millimolar solution of SNAP, vs control): delayed skin barrier recovery; intracellular calcium concentration (ratio 340 nm/380 nm, fura-2) ([3]; 300 μM SNAP, calcium-containing BSS): increased; intracellular calcium concentration (ratio 340 nm/380 nm, fura-2) ([3]; SNAP, calcium-free medium): an increase of [Ca^2+] was induced

**Q.** `O=c1onc2n1-c1cc(Br)ccc1OC2` [NS 2028, 4H-8-bromo-1,2,4-oxadiazolo[3,4-dibenz[b][1,4]oxazin-1-one] was tested. Which “barrier recovery after tape stripping (percent recovery of TEWL)” value (hairless mice [1]; [4]) did it give?
**A.** accelerated the barrier recovery

**Q.** `O=c1onc2cnc3ccccc3n12` [ODQ, 1H-[1,2,4]oxadiazolo[4,3-a]quinoxalin-1-one] was tested. Which “barrier recovery after tape stripping (percent recovery of TEWL)” value (hairless mice [1]; [4]) did it give?
**A.** accelerated the barrier recovery

**Q.** What about the “effect on increase of intracellular calcium induced by SNAP” value ([3]; 300 μM SNAP with 10 μM ODQ or 50 μM nifedipine) of the same compound?
**A.** blocked

**Q.** What about the “epidermal proliferation (number of BrdU-positive cells, DNA synthesis)” value (hairless mice [2]) of the same compound?
**A.** Significant reductions

**Q.** And the epidermal thickness (hairless mice [2])?
**A.** Significant reductions

**Q.** And the “epidermal hyperplasia induced by acetone treatment under low environmental humidity” value (hairless mice [2])?
**A.** prevented the hyperplasia

**Q.** What does the source list for `CSC(=N)N` [iNOS inhibitor, S-methylisothiourea]?
**A.** barrier recovery after tape stripping (percent recovery of TEWL) (hairless mice [1]; [4]): did not affect the barrier recovery; increase of NO level (release) after tape stripping (skin of hairless mice): did not affect

**Q.** Which “barrier recovery after tape stripping (percent recovery of TEWL)” value (hairless mice [1]; [4]) does the source give for `Nc1c[n+](N2CCOCC2)no1.[Cl-]` [SIN, SIN-1 chloride] here?
**A.** delayed the barrier recovery
